# Assay results as given in EP1285919A1, “C10 Carbonate substituted taxanes as antitumor agents” (Florida State University Research Foundation, Inc., priority 2001, dated 2003).
# Read-outs that look alike come from different tables or passages of the source.
# Legend:
# [1] = tested on: VM46 Human Colon Carcinoma; assay: In vivo evaluation against VM46 colon carcinoma xenografts; set-up: species or system NCr-nude mice
# Protocol: In Vivo Evaluation of Antitumor Compounds Against VM46 Human Colon Carcinoma
# The VM46 tumor group mean size range was 181-188 mg. Dosing was initiated on Day 1. […] Taxotere was given i.v. at a dose of 70 mg/kg on a qd x 1 schedule. […] The study was terminated on Day 64. Treatment groups are detailed in Table 11.
# [2] = tested on: A375 Human Melanoma Xenografts; assay: In vivo evaluation against A375 melanoma xenografts
# Protocol: In Vivo Evaluation of Antitumor Compounds Against A375 Human Melanoma Xenografts
# Antitumor compounds were prepared in a vehicle of 5% ethanol, 5% Cremophor and 90% isotonic saline in the manner as described for Solution 1 of Example 10. Taxol (paclitaxel; Bristol Meyers Squibb) and Taxotere (docetaxel; Rhône-Poulenc Rorer) were obtained as the marketed pharmaceutical drugs. The dosing volume was 0.3 ml per 20 g mouse.
# Female NCr-nude mice were implanted subcutaneously with 1 mm^3 A375 melanoma fragments in the flank were sorted into treatment groups of six mice each, except the Taxotere treatment group which was a group of seven mice. […] Dosing was initiated on Day 1. The antitumor compounds were given i.v. at an estimated maximum tolerated dose (MTD) appropriate for each agent on a qd x 1 schedule (single administration of compound). The i.v. taxol was given on the qd x 1 schedule as two split doses (one hour between) of 12 mg/kg per split dose (total dose = 24 mg/kg). Taxol was also administered i.p. on a qd x 5 schedule at a daily dose of 18 mg/kg. Taxotere was given i.v. on a qd x 1 schedule at a dose of 70 mg/kg. The vehicle was administered i.v. to control mice in Group 1 on the qd x 1 schedule. The study was terminated on Day 60. Treatment groups are detailed in Table 7.
# The results are summarized in Table 8 and include mean days of survival (MDS), number of toxic deaths, number of survivors, number of complete or partial responses, and number with stable disease. The mean days of survival is the number of days after which a neoplasm reached a size of 2.0 g and the animal was euthanized. A complete response is obtained […].
# [3] = tested on: A2780 Human Ovarian Carcinoma Xenografts; assay: In vivo evaluation against A2780 ovarian carcinoma xenografts; set-up: species or system NCr-nude mice
# Protocol: In Vivo Evaluation of Antitumor Compounds Against A2780 Human Ovarian Carcinoma Xenografts
# The A2780 group mean size range was 237-243 mg. Dosing was initiated on Day 1. […] Treatment groups are detailed in Table 5.
# HCT116 = assay: In vitro cytotoxicity, cell colony formation assay; type: cell-based; conditions: read-out: IN VITRO ID 50
# Protocol: In Vitro cytotoxicity measured by the cell colony formation assay
# Four hundred cells (HCT116) were plated in 60 mm Petri dishes containing 2.7 mL of medium (modified McCoy's 5a medium containing 10% fetal bovine serum and 100 units/mL penicillin and […] streptomycin). The cells were incubated in a CO2 incubator at 37 °C for 5 h for attachment to the bottom of Petri dishes. The compounds identified in Example 2 were made up fresh in medium at ten times the final concentration, and then 0.3 mL of this stock solution was added to the 2.7 mL of medium in the dish. The cells were then incubated with drugs for 72 h at 37 ° C. At the end of incubation the drug-containing media were decanted, the dishes were rinsed with 4 mL of Hank's Balance Salt Solution (HBSS), 5 mL of fresh medium was added, and the dishes were returned to the incubator for colony formation. The cell colonies were counted using a colony counter after incubation for 7 days.
# SK-MES carcinoma = tested on: SK-MES carcinoma
# Protocol: (§1) In Vivo Evaluation of Antitumor Compounds Against Human Lung Carcinoma Xenografts
# (§2) The compounds were prepared in the manner as described for Solution 2 of Example 10. Taxol (paclitaxel, Bristol Meyers Squibb), used as a control, was obtained as the marketed pharmaceutical drug.
# (§3) Taxol itself was given as a split i.v. dose of 36 mg/kg, with the two 18 mg/kg doses separated by one hour. Vehicle control animals were dosed twice intravenously with half the total volume being given separated by one hour. The study was terminated on Day 60.
# (§4) The results are summarized in Table 1 and include mean days of survival (MDS), number of toxic deaths, number of survivors, number of complete or partial responses, and number with stable disease. The mean days of survival is the number of days after which a SKMES neoplasm reached a size of 1.5 g and the animal was euthanized. A complete response is obtained if the tumor is not palpable at the end of the study. A partial response is obtained if the tumor shrinks to a size smaller than its size on Day 1 of the study.
# (§5) A tumor scoring system was designed to provide a more quantitative ranking of efficacy (therapeutic potential) among the antitumor agents evaluated against the different human solid tumor xenografts. Each mouse in a study was given a score of from 1 to 10 at the end of the study. The scores can be summarized as follows:
# (§6) The individual score for each mouse was averaged into a mean score for each treatment group. […]
# [4] = tested on: SKMES Human Lung Carcinoma Xenograft
# Protocol: The compound was administered as a single bolus by the oral route in a study to investigate the efficacy of this compound against the SKMES human lung cancer xenograft.
# Female Nu/Nu mice (6-8 weeks of age; implanted with 1 mm^3 SKMES lung carcinoma fragments in the flank) were sorted into four treatment groups of six mice each. SKMES size ranges and group mean SKMES size ranges were 126-448 mg and 238-241 mg, respectively. […] Treatments were administered as a single oral bolus on Day 1, and the study was terminated on Day 60.
# as §4, with “Table 13” for “Table 1”, “of 2.0” for “of 1.5”
# The total response rate was 100% with four complete responses and two partial responses. The total response rate is defined as the percentage of evaluable animals (excluding deaths due to procedure or toxicity) in a group that experience complete or partial responses at the termination of the study.
# [5] = tested on: NCI-H1299 (H1299) carcinoma
# Protocol: as §1, §2, §3, §4, §5, §6
# The treatment protocol for the H1299 test was identical to the SK-MES test protocol. […]
# [6] = Group 5: 70 mg/kg i.v. qd x 1, 6 mice, study to Day 64
# [7] = Group 5: 70 mg/kg i.v. qd x 1, 7 mice, study to Day 60
# [8] = i.v. qd x 1, Taxol 24 mg/kg, Taxotere 70 mg/kg
# [9] = i.v. qd x 1, Taxol 24 mg/kg, Taxotere 70 mg/kg, 2.0 g cut-off
# [10] = Group 5: 70 mg/kg i.v. qd x 1, group of six mice, study to Day 60
# [11] = number of mice of six, i.v. split dose qd x 1, Taxol 36 mg/kg, 1755 49 mg/kg
# [12] = 1755 49 mg/kg single oral bolus, six mice
# [13] = Group 4: 49 mg/kg single oral bolus Day 1, 6 mice, study to Day 60
smiles,measurement,setting,value
"CC(=O)O[C@@]12CO[C@@H]1C[C@H](O)[C@@]1(C)C(=O)[C@H](O)C3=C(C)[C@@H](OC(=O)[C@H](O)[C@@H](NC(=O)OC(C)(C)C)c4ccccc4)C[C@@](O)([C@@H](OC(=O)c4ccccc4)[C@H]21)C3(C)C [Docetaxel, docetaxel]",MDS (n),"[1]; Group 5: 70 mg/kg i.v. qd x 1, 6 mice, n=6, 1.5 g endpoint, study to Day 64",45.3 ± 3.6(6) days
same,Complete Response,[1]; [6],0
same,Mean Score,[1]; [6],2 ± 0
same,Partial Response,[1]; [6],0
same,Stable Disease,[1]; [6],0
same,Toxic Deaths,[1]; [6],0
same,MDS,"[1]; i.v. qd x 1, Taxol 24 mg/kg (four mice), Taxotere 70 mg/kg, 1.5 g endpoint",45.3 days
same,MDS (n),"[2]; Group 5: 70 mg/kg i.v. qd x 1, 7 mice, n=7, 2.0 g endpoint, study to Day 60",21.5 ± 0.5(7) days
same,Complete Response,[2]; [7],0
same,Mean Score,[2]; [7],2 ± 0
same,Partial Response,[2]; [7],0
same,Stable Disease,[2]; [7],0
same,Survivors,[2]; [7],0
same,Toxic Deaths,[2]; [7],0
same,survival extension compared to Group 1 controls,[2]; [8],49%
same,MDS,[2]; [9],21.5 days
same,MDS (n),"[3]; Group 5: 70 mg/kg i.v. qd x 1, group of six mice, n=5, 2.0 g endpoint, study to Day 60",27.4 ± 3.5 (5) days
same,Complete Response,[3]; [10],0
same,Mean Score,[3]; [10],2.5 ± 0.3
same,Partial Response,[3]; [10],0
same,Stable Disease,[3]; [10],0
same,Survivors,[3]; [10],0
same,Toxic Deaths,[3]; [10],0
same,increase in survival / survival extension compared to Group 1 controls,[3]; [8],134%
same,MDS,[3]; [9],27.4 days
same,IC50,"HCT116; Homo sapiens, HCT-116",0.6 nM
"CCOC(=O)OC1C(=O)C2(C)C(O)CC3OCC3(OC(C)=O)C2C(OC(=O)c2ccccc2)C2(O)CC(OC(=O)C(O)C(NC(=O)OC(C)(C)C)c3cccs3)C(C)=C1C2(C)C (centres unmarked) [Compound 1755, 3'-Desphenyl-3'-(2-thienyl)-10-ethoxycarbonyl-10-deacetyl taxotere]",tolerability,SK-MES carcinoma; 1755 49 mg/kg i.v.,well tolerated
same,Toxic Deaths,SK-MES carcinoma; [11],0
same,Survivors,"SK-MES carcinoma; number of mice of six, study ended Day 60",6
same,Stable Disease,"SK-MES carcinoma; number of mice of six, tumor below 1.5 g at end of study",1
same,Partial Response,"SK-MES carcinoma; number of mice of six, tumor smaller than on Day 1",0
same,Mean Score,"SK-MES carcinoma; tumor score 1 to 10 per mouse, averaged per group (10 = complete response)",9.2 ± 0.8
same,total response rate,"[4]; 1755 49 mg/kg single oral bolus Day 1, six mice, study ended Day 60",100%
same,complete responses,[4]; [12],four
same,partial responses,[4]; [12],two
same,% Total Response,[4]; [13],100%
same,Complete Response,[4]; [13],4
same,Partial Response,[4]; [13],2
same,Stable Disease,[4]; [13],0
same,Survivors,[4]; [13],6
same,Toxic Deaths,[4]; [13],0
same,Partial Response,[5]; number of mice of six,0
same,Stable Disease,[5]; number of mice of six,1
same,Survivors,[5]; number of mice of six,4
same,Toxic Deaths,[5]; [11],2
same,Mean Score,"[5]; tumor score 1 to 10 per mouse, averaged per group",5.8 ± 2
same,IC50,"HCT116; HCT116, 72 h with drug, colonies counted after 7 days, concentration producing 50% inhibition of colony formation",< 1 nM
